Results from US20210070748A1, “INHIBITORS OF BRUTONS TYROSINE KINASE” (Pharmacyclics LLC, priority 2015, published 2021).

Experiments:
[1] = molecular target: T1, JAK3 (Homo sapiens, UniProt P52333); test: Inhibition of a panel of kinases, in vitro HotSpot kinase assay: JAK3; format: biochemical; conditions: D-compounds panel data; 1 μM ATP; read-out: IC50 JAK3
T1 sequence (P52333 1-1124): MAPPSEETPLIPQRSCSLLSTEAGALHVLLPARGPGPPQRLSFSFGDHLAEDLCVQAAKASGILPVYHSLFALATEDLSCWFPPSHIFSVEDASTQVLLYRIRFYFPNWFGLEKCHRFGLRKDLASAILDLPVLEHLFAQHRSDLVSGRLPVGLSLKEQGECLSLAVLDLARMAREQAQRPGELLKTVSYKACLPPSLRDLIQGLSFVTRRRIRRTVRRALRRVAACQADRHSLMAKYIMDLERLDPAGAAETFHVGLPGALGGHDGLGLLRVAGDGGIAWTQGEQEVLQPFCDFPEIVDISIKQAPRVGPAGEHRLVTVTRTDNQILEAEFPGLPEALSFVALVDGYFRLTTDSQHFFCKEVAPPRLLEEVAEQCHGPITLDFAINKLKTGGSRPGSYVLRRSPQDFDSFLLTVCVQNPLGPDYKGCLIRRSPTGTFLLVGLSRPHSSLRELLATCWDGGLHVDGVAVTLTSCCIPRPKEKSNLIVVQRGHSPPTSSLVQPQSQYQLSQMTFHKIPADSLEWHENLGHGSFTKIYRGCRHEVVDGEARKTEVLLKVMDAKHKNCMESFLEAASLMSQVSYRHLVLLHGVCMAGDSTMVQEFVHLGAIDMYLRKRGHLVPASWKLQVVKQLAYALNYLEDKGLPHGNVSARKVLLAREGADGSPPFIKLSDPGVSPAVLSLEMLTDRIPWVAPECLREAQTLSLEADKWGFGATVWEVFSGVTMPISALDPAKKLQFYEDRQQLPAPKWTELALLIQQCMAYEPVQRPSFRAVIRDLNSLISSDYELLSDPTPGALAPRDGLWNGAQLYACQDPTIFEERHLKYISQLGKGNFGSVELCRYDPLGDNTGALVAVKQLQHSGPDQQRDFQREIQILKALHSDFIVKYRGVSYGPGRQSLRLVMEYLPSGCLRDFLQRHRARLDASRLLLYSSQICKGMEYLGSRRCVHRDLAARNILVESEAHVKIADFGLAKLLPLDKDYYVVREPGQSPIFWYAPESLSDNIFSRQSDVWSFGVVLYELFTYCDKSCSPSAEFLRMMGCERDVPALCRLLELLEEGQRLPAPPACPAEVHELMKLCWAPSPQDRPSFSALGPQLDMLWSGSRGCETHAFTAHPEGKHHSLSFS

[2] = molecular target: SRC (Homo sapiens, UniProt P12931); test: Inhibition of a panel of kinases, in vitro HotSpot kinase assay: SRC; format: biochemical; conditions: D-compounds panel data; 1 μM ATP
Procedure: The degree of inhibition of a panel of kinases is determined using the in vitro HotSpot kinase assay (purified enzymes, ^33P-ATP, an appropriate substrate and 1 μM ATP).

Sequence of SRC (P12931 whole entry): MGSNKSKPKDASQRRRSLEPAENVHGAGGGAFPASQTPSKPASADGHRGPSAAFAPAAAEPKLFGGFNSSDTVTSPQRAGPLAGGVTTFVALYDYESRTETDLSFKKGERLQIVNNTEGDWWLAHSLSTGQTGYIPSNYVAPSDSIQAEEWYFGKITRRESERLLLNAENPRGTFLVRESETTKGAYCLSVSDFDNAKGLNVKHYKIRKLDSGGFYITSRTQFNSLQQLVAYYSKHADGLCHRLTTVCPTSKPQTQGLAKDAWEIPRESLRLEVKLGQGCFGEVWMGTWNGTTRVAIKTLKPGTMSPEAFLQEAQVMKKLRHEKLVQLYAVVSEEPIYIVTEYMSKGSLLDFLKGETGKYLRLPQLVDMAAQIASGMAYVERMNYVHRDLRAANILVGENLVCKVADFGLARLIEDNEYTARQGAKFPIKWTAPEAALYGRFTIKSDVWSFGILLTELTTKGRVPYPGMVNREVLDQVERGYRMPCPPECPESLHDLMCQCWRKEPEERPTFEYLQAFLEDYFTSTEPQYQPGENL

| SMILES | IC50 [1] | IC50 [2] |
| --- | --- | --- |
| Cc1cc(Nc2nc(N3C[C@H](NC(=O)N(C)C)CC[C@@H]3C)cnc2C(N)=O)sn1 [Example D-74, 5-[(2S,5R)-5-[(dimethylcarbamoyl)amino]-2-methylpiperidin-1-yl]-3-[(3-methyl-1,2-thiazol-5-yl)amino]pyrazine-2-carboxamide] | 100 to 1000 nM | 1000 to 10000 nM |
| Cc1cc(Nc2nc(N3C[C@@H](NC(=O)N(C)C)CC[C@H]3C)cnc2C(N)=O)sn1 [Example D-75, 5-[(2R,5S)-5-[(dimethylcarbamoyl)amino]-2-methylpiperidin-1-yl]-3-[(3-methyl-1,2-thiazol-5-yl)amino]pyrazine-2-carboxamide] | 100 to 1000 nM | 100 to 1000 nM |
| Cc1cc(Nc2nc(N3C[C@@H](NC(=O)N(C)C)CC[C@@H]3C)cnc2C(N)=O)sn1 [Example D-76, 5-[(2S,5S)-5-[(dimethylcarbamoyl)amino]-2-methylpiperidin-1-yl]-3-[(3-methyl-1,2-thiazol-5-yl)amino]pyrazine-2-carboxamide] | 1000 to 10000 nM | 1000 to 10000 nM |
| Cc1cc(Nc2nc(N3C[C@H](NC(=O)N(C)C)CC[C@H]3C)cnc2C(N)=O)sn1 [Example D-77, 5-[(2R,5R)-5-[(dimethylcarbamoyl)amino]-2-methylpiperidin-1-yl]-3-[(3-methyl-1,2-thiazol-5-yl)amino]pyrazine-2-carboxamide] | 1000 to 10000 nM | 1000 to 10000 nM |
| Cc1cc(Nc2nc(N3C[C@@H](NC(=O)c4ccc(C5CC5)cc4F)CC[C@@H]3C)cnc2C(N)=O)sn1 [Example D-78, 5-[(2S,5S)-5-(4-cyclopropyl-2-fluorobenzamido)-2-methylpiperidin-1-yl]-3-[(3-methyl-1,2-thiazol-5-yl)amino]pyrazine-2-carboxamide] | 1000 to 10000 nM | 100 to 1000 nM |
| Cc1cc(Nc2nc(N3C[C@H](NC(=O)c4ccc(C5CC5)cc4F)CC[C@H]3C)cnc2C(N)=O)sn1 [Example D-79, 5-[(2R,5R)-5-(4-cyclopropyl-2-fluorobenzamido)-2-methylpiperidin-1-yl]-3-[(3-methyl-1,2-thiazol-5-yl)amino]pyrazine-2-carboxamide] | 1000 to 10000 nM | 1000 to 10000 nM |
| Cc1cc(Nc2nc(N3C[C@@H](NC(=O)c4ccc(C5CC5)cc4F)CC[C@H]3C)cnc2C(N)=O)sn1 [Example D-80, 5-[(2R,5S)-5-(4-cyclopropyl-2-fluorobenzamido)-2-methylpiperidin-1-yl]-3-[(3-methyl-1,2-thiazol-5-yl)amino]pyrazine-2-carboxamide] | 1000 to 10000 nM | 100 to 1000 nM |
| C[C@@H]1[C@H](NC(=O)c2ccc(C3CC3)cc2)CCCN1c1cnc(C(N)=O)c(Nc2ccc(N3CCN(C)CC3)cc2)n1 [Example D-81] | 1000 to 10000 nM | 10 to 100 nM |
| C[C@@H]1[C@H](NC(=O)c2ccc(C3CC3)cc2F)CCCN1c1cnc(C(N)=O)c(Nc2ccc(N3CCN(C)CC3)c(F)c2)n1 [Example D-82, 5-[(2R,3R)-3-(4-cyclopropyl-2-fluorobenzamido)-2-methylpiperidin-1-yl]-3-{[3-fluoro-4-(4-methylpiperazin-1-yl)phenyl]amino}pyrazine-2-carboxamide] | 1000 to 10000 nM | 10 to 100 nM |
| C[C@@H]1[C@H](NC(=O)c2ccc(C3CC3)cc2)CCCN1c1cnc(C(N)=O)c(Nc2ccc3nccn3c2)n1 [Example D-83, 5-[(2R,3R)-3-(4-cyclopropylbenzamido)-2-methylpiperidin-1-yl]-3-({imidazo[1,2-a]pyridin-6-yl}amino)pyrazine-2-carboxamide] | 1000 to 10000 nM | 100 to 1000 nM |
| C[C@@H]1[C@H](NC(=O)c2ccc(C3CC3)cc2)CCCN1c1cnc(C(N)=O)c(Nc2ccc(OC3CCN(C)CC3)cc2)n1 [Example D-89] | 100 to 1000 nM | 10 to 100 nM |
| C[C@@H]1[C@H](NC(=O)c2ccc(C3CC3)cc2)CCCN1c1cnc(C(N)=O)c(Nc2ccc(N3CCN(C)CC3)c(C(F)(F)F)c2)n1 [Example D-92, 5-[(2R,3R)-3-(4-cyclopropylbenzamido)-2-methylpiperidin-1-yl]-3-{[4-(4-methylpiperazin-1-yl)-3-(trifluoromethyl)phenyl]amino}pyrazine-2-carboxamide] | > 10000 nM | 100 to 1000 nM |
| C[C@@H]1[C@H](NC(=O)c2ccc(C3CC3)cc2)CCCN1c1cnc(C(N)=O)c(Nc2ccc(CN3CCOCC3)cc2)n1 [Example D-316, 5-[(2R,3R)-3-(4-cyclopropylbenzamido)-2-methylpiperidin-1-yl]-3-{[4-(morpholin-4-ylmethyl)phenyl]amino}pyrazine-2-carboxamide] | 1000 to 10000 nM | 10 to 100 nM |
| C[C@@H]1[C@H](NC(=O)c2ccc(C3CC3)cc2)CCCN1c1cnc(C(N)=O)c(Nc2ccc(C3CCOCC3)cc2)n1 [Example D-317, 5-[(2R,3R)-3-(4-cyclopropylbenzamido)-2-methylpiperidin-1-yl]-3-{[4-(oxan-4-yl)phenyl]amino}pyrazine-2-carboxamide] | 1000 to 10000 nM | > 10000 nM |

The next lines start with the values.

| IC50 [1] | IC50 [2] | SMILES |
| --- | --- | --- |
| > 10000 nM | 10 to 100 nM | C[C@@H]1[C@H](NC(=O)c2ccc(N(C)C)cn2)CCCN1c1cnc(C(N)=O)c(Nc2cnn(C)c2)n1 [Example D-84, 5-[(2R,3R)-3-[5-(dimethylamino)pyridine-2-amido]-2-methylpiperidin-1-yl]-3-[(1-methyl-1H-pyrazol-4-yl)amino]pyrazine-2-carboxamide] |
| 100 to 1000 nM | 100 to 1000 nM | C[C@@H]1[C@H](NC(=O)c2ccc(-c3ncccn3)cc2)CCCN1c1cnc(C(N)=O)c(Nc2cnn(C)c2)n1 [Example D-85, 3-[(1-methyl-1H-pyrazol-4-yl)amino]-5-[(2R,3R)-2-methyl-3-[4-(pyrimidin-2-yl)benzamido]piperidin-1-yl]pyrazine-2-carboxamide] |
| 100 to 1000 nM | 10 to 100 nM | C[C@@H]1[C@H](NC(=O)c2cnc(C3CC3)nc2)CCCN1c1cnc(C(N)=O)c(Nc2cnn(C)c2)n1 [Example D-86, 5-[(2R,3R)-3-(2-cyclopropylpyrimidine-5-amido)-2-methylpiperidin-1-yl]-3-[(1-methyl-1H-pyrazol-4-yl)amino]pyrazine-2-carboxamide] |
| 100 to 1000 nM | 10 to 100 nM | C[C@@H]1[C@H](NC(=O)c2ccc(C(F)(F)F)cn2)CCCN1c1cnc(C(N)=O)c(Nc2cnn(C)c2)n1 [Example D-87, 3-[(1-methyl-1H-pyrazol-4-yl)amino]-5-[(2R,3R)-2-methyl-3-[5-(trifluoromethyl)pyridine-2-amido]piperidin-1-yl]pyrazine-2-carboxamide] |
| 1000 to 10000 nM | 10 to 100 nM | C[C@@H]1[C@H](NC(=O)c2ccc(C(C)(C)C#N)cc2)CCCN1c1cnc(C(N)=O)c(Nc2cnn(C)c2)n1 [Example D-88, 5-[(2R,3R)-3-[4-(1-cyano-1-methylethyl)benzamido]-2-methylpiperidin-1-yl]-3-[(1-methyl-1H-pyrazol-4-yl)amino]pyrazine-2-carboxamide] |
| 1000 to 10000 nM | 100 to 1000 nM | C[C@@H]1[C@H](NC(=O)C23CC(C2)C3)CCCN1c1cnc(C(N)=O)c(Nc2cnn(C)c2)n1 [Example D-90, 5-[(2R,3R)-3-{bicyclo[1.1.1]pentane-1-amido}-2-methylpiperidin-1-yl]-3-[(1-methyl-1H-pyrazol-4-yl)amino]pyrazine-2-carboxamide] |
| 100 to 1000 nM | 10 to 100 nM | C[C@@H]1[C@H](NC(=O)c2ccc(C(F)(F)F)nc2)CCCN1c1cnc(C(N)=O)c(Nc2cnn(C)c2)n1 [Example D-91, 3-[(1-methyl-1H-pyrazol-4-yl)amino]-5-[(2R,3R)-2-methyl-3-[6-(trifluoromethyl)pyridine-3-amido]piperidin-1-yl]pyrazine-2-carboxamide] |
| 100 to 1000 nM | 10 to 100 nM | C[C@@H]1[C@H](N2CCN(C)C2=O)CCCN1c1cnc(C(N)=O)c(Nc2cnn(C)c2)n1 [Example D-93, 3-[(1-methyl-1H-pyrazol-4-yl)amino]-5-[(2R,3R)-2-methyl-3-(3-methyl-2-oxoimidazolidin-1-yl)piperidin-1-yl]pyrazine-2-carboxamide] |
| 100 to 1000 nM | 10 to 100 nM | C[C@@H]1[C@H](NC(=O)c2ccc(C(C)(C)CO)cc2)CCCN1c1cnc(C(N)=O)c(Nc2cnn(C)c2)n1 [Example D-94, 5-[(2R,3R)-3-[4-(1-hydroxy-2-methylpropan-2-yl)benzamido]-2-methylpiperidin-1-yl]-3-[(1-methyl-1H-pyrazol-4-yl)amino]pyrazine-2-carboxamide] |
